Assay results reported in PubChem BioAssay AID179 (DTP/NCI, 2004).
Where “and” joins values, the source holds several entries; their conditions need not be identical. Equal entries are not always repeated. Calls of active or inactive are those of the source.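 How the source made its calls: active means compounds giving half or more protection of infected cells from virus-caused growth loss, again on retest; inactive means the rest.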

Tested on: CEM cells HIV-1 protection, formazan growth assay
Assay: NCI AIDS Antiviral Assay
Details: for IC50: measured here: growth of uninfected CEM cells
Method in brief: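 Steps: treat uninfected and HIV-1-infected human CEM cells at five drug levels; quantify growth by soluble formazan; retest any compound reaching 50% protection; classify actives from the retest.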

Row | Structure (SMILES) | EC50 [µM] | IC50 | outcome
1 | COC(=O)[C@]1(C)CCC[C@]2(C)c3ccc(C(C)C)cc3C(=O)[C@@H](Br)[C@@H]12 | > 200 | 8.51 µM | –
2 | CC(Oc1ccccc1)C(=O)NN (configuration not stated) | > 200 | > 200 µM | –
3 | Cn1c(-c2ccc(/C=N/N=C(\N)N/N=C/c3ccc(-c4c[n+]5ccsc5n4C)cc3)cc2)c[n+]2ccsc12 | 6.03 | 120 µM | –
4 | C=CCN(c1cc(OC)c(NC(C)=O)cc1[N+](=O)[O-])S(C)(=O)=O | > 200 | > 200 µM | –
5 | Cc1cn(CC(=O)NCCO)c(=O)[nH]c1=O | > 200 | > 200 µM | –
6 | C[Si](C)(C)C(CCCCSc1ccccc1)(Sc1ccccc1)Sc1ccccc1 | – | – | inactive
7 | N#C/C(=C(\N)c1ccccc1)c1ccccc1 | > 200 | 97.7 µM | –
8 | CCOC(=O)CCC(NC(=O)c1ccc(Nc2nc3ccccc3nc2C(=O)OCC)s1)C(=O)OCC (configuration not stated) | > 200 | > 200 µM | –
9 | CCc1n[nH]c(=O)n1/N=C/c1c(O)ccc2ccccc12 | > 200 | > 200 µM | –
10 | COc1ccccc1C1c2cc3c(cc2OC2(OC)COC(=O)C12)OCO3 (configuration not stated) | > 200 | 10.2 µM | –
11 | Cc1c2c(c(C)c3c1C(=O)c1cc4c(cc1C3=O)OCO4)OCO2 | > 200 | > 200 µM | –
12 | O=C1C=C(Nc2cc(Cl)ccc2Cl)c2ccccc2C1=O | > 3.16 | > 3.16 µM | –
13 | O=[N+]([O-])c1ccc(S(=O)(=O)NN2CCOCC2)cc1 | > 126 | > 126 µM | –
14 | C[n+]1c(-c2ccc(/C=N/NC(=N)N/N=C/c3ccc(-c4cn5cc(Cl)ccc5[n+]4C)cc3)cc2)cn2cc(Cl)ccc21 | 6.46 | 155 µM | –
15 | CNS(=O)(=O)NN(C)S(=O)(=O)c1ccc(Cl)cc1 | > 209 | 204 µM | –
16 | Cc1ccc(S(=O)(=O)NC(CCC(=O)NNc2ccccc2)C(=O)NNc2ccccc2)cc1 (configuration not stated) | > 200 | – | –
17 | Cn1c(/C=C(\O)c2ccc(Cl)cc2)nc2ccccc21 | > 91.2 | > 91.2 µM | –
18 | CC(=O)OI1NC(=O)c2ccccc21 | 36.3 | 126 µM | –
19 | O=C(O)c1ccccc1C(=O)OC1CC2CCC1C2 (configuration not stated) | > 200 | > 200 µM | –
20 | Cc1ccc(-c2n[nH]c(=O)n2N2C(=O)c3ccccc3C2=O)cc1 | > 200 | > 200 µM | –
21 | CCOC(=O)C1Cc2ccc(OC)cc2C2=CC(=O)CCC21 (configuration not stated) | > 166 | > 166 µM | –
22 | CNc1ncnc2nc(C)c(C)nc12 | > 200 | > 200 µM | –

Row | Structure (SMILES) | EC50 [µM] | IC50 | outcome
23 | CC(=O)Nc1cc(N=Nc2ccc(N=Nc3ccc(NC(=O)c4ccc(N)cc4)cc3C)cc2C)c(S(=O)(=O)O)cc1N=Nc1ccc(C(=O)O)cc1 | > 123 | 115 µM | –
24 | O=c1c2c(c1=O)C1(SCCCS1)c1cc(Cl)ccc1O2 | > 200 | > 200 µM | –
25 | N#CC(Nc1ccccc1)c1ccc(C(C#N)Nc2ccccc2)cc1 (configuration not stated) | > 200 | 9.55 µM | –
26 | O=C(O)c1ccccc1NS(=O)(=O)c1ccc(Cl)cc1 | – | – | inactive
27 | COc1ccc(NC(=O)CC(=O)N/N=C/c2ccc(N(CCC#N)S(C)(=O)=O)cc2)cc1 | > 148 | > 148 µM | –
28 | CC[C@@H]1C[C@@H](O)[C@@H]2[C@H](O)[C@H](O)CN2C1 | > 200 | > 200 µM | –
29 | O=c1ccn(C2CC(CO)C(CO)C2)c(=O)[nH]1 (configuration not stated) | > 105 | > 105 µM | –
30 | CCOC(=O)CC1=Nc2ccccc2SC1 | – | – | inactive
31 | C/C(=N\N)C(CN(C)C)C(c1ccccc1)c1c(O)c2ccccc2oc1=O (configuration not stated) | > 87.1 | > 87.1 µM | –
32 | COc1ccc2c(c1OC)C(=O)c1cnccc1C2=O | 60.3 | 132 µM | –
33 | OC(c1ccccc1)c1cccc(C(O)c2ccccc2)c1 (configuration not stated) | > 123 | > 123 µM | –
34 | CC(C)OP(=O)(OC(C)C)C(C(C)C)N(C)/C(F)=N/C(F)(F)F (configuration not stated) | > 200 | > 200 µM | –
35 | O=C1NNC2NC(=O)C3(NN2C1=O)c1ccccc1-c1ccccc13 (configuration not stated) | > 100 | > 100 µM | –
36 | COC(=O)[C@@]12C(=O)C(C)C(=O)[C@]1(C)C(C)=C[C@H]1[C@]3(C=O)CC[C@H](OC(C)=O)C(C)(C)[C@H]3CC[C@@]12C (some centres not stated) | > 200 | 97.7 µM | –
37 | CCCC[As](CCCC)SC1CCC2(C)C(=CCC3C4CCC(=O)C4(C)CCC32)C1 (configuration not stated) | > 46.8 | 15.8 µM | –
38 | O=C1CSC(=S)N1Cc1ccncc1 | > 200 | 4.27 µM | –
39 | CCN(CC)CCCNC(=O)C1COc2cc(-c3cc(=O)c4ccccc4o3)ccc2O1 (configuration not stated) | – | – | inactive
40 | Cc1nc2ccccc2c(=O)n1Nc1ccc(C(=O)O)cc1 | – | – | inactive
41 | O=S(c1ccccc1)[C@H]1CC2C3CC4C2C4C31 (some centres not stated) | > 107 | > 107 µM | –
42 | COc1ccc(CC2COC(=O)[C@@H]2Cc2cccc(O)c2)cc1OC (some centres not stated) | > 200 | 155 µM | –
43 | C=CCNC(=S)N/C=C(/C(=O)c1ccccc1)c1ccccc1 | > 200 | 182 µM | –
44 | COc1ccc(/C=C(\C#N)C(=O)c2ccccc2)cc1 | > 97.7 | 56.2 µM | –

Row | Structure (SMILES) | EC50 [µM] | IC50 | outcome
45 | Cc1ccc(S(=O)(=O)N/N=C/C2(c3ccccc3)c3ccccc3-c3ccccc32)cc1 | > 200 | 11.2 µM | –
46 | O=C1Oc2ccccc2C(=O)/C1=C/N1C(=O)N/C(=C\c2ccccc2Br)C1=O | > 200 | 83.2 µM | –
47 | Cc1cnc(/N=c2\sc(C)cn2-c2ncc(C)s2)s1 | > 200 | > 200 µM | –
48 | CN(C)c1ccc(C=C2C=CC=C2)cc1 | > 19.1 | > 19.1 µM | –
49 | Cc1cn(C2CC(OP(=O)(O)OCC3CCC(n4ccc(N)nc4=O)O3)C(CO)O2)c(=O)[nH]c1=O (configuration not stated) | 0.204 | 35.5 µM | –
50 | COc1ccc(C(OCC2OC(n3ccc(NC(=O)c4ccccc4)nc3=O)CC2OP2(=S)SCCS2)(c2ccccc2)c2ccc(OC)cc2)cc1 (configuration not stated) | > 100 | 44.7 µM | –
51 | O=C(O)c1nc2ccc(C(F)(F)F)cc2nc1NCc1ccc(Cl)c(Cl)c1 | > 200 | 19.1 µM | –
52 | O=c1c2cc(-c3ccccc3)sc2nc2n1N=C(c1ccccc1)CS2 | > 200 | > 200 µM | –
53 | CC(=O)/C(=C/c1ccccc1[N+](=O)[O-])C(=O)c1ccccc1 | > 24.5 | 2.09 µM | –
54 | CCOC(=O)C1=C(OC(OCC)C([Se]c2ccccc2)C(C)C)CCC1 (configuration not stated) | > 23.4 | > 23.4 µM | –
55 | C=CCCC(=O)CC(=O)OC | > 1580 | > 1580 µM | –
56 | O=C(CC(=O)CC(O)(C(F)(F)F)C(F)(F)F)CC(O)(C(F)(F)F)C(F)(F)F | > 200 | 10.5 µM | –
57 | NC1=CN(Cc2ccccc2)C2=N/C(=C\c3ccco3)C(=O)N12 | > 200 | 191 µM | –
58 | COc1cc2c(cc1OC)CC1c3cc(OC)c(OC)cc3CCN1CC2 (configuration not stated) | > 200 | 30.2 µM | –
59 | CN1COc2c(nc(-c3ccccc3)[nH]c2=O)C1 | > 1020 | 61.7 µM | –
60 | O=S(=O)([O-])[O-].[Fe+2].[OH2+]c1c(Cl)cc(Cl)cc1/C=N/Nc1ccccn1 | – | – | inactive
61 | O=C(Nc1ccc(/C=C/c2ccc(NC(=O)c3ccc(O)cc3O)cc2S(=O)(=O)O)c(S(=O)(=O)O)c1)c1ccc(O)cc1O | > 151 | 126 µM | –
62 | Cc1cccc(C(C)(C)C)c1NC(=O)C(=O)Cc1nc2ccccc2s1 | – | – | inactive
63 | COc1cc(C=Nc2cc(Cl)c(N=O)c(Cl)c2)ccc1N(CCCCl)CCCCl | 5.25 | 22.4 µM | –
64 | Cc1nn2c(=O)c([N+](=O)[O-])c(/C=C/c3ccc(F)cc3)nc2s1 | > 200 | 5.25 µM | –
65 | O=S1(=O)CCCc2c1ccc1ccccc21 | > 200 | > 200 µM | –
66 | CN=C(Nc1cccc(C(F)(F)F)c1)SCc1ccc(N=C=S)cc1 | – | – | inactive

Row | Structure (SMILES) | EC50 [µM] | IC50 | outcome
67 | C1Cn2nnnc2N1 | > 2240 | > 2240 µM | –
68 | NS(=O)(=O)c1ccc(NCc2cccc3c(=O)c4ccc(Cl)cc4oc23)cc1 | > 100 | 4.07 µM | –
69 | COc1ccc2nc3ccc(OC)cc3c(S(=O)Cc3ccccc3)c2c1 (configuration not stated) | > 200 | 1.23 µM | –
70 | CCCCCCCCCCCC1N=C(N)NC(CCCO)=C1C(=O)OC (configuration not stated) | > 200 | 3.47 µM | –
71 | COc1ccccc1NC(=O)/C(=C/n1c(=S)[nH]c2ccccc21)C(C)=O | > 200 | > 200 µM | –
72 | Cc1c(C(=O)Nc2ccc(Cl)c(C(F)(F)F)c2)oc2cc(O)ccc2/c1=N\NC(N)=S | > 525 | 112 µM | –
73 | CN(C)CCCNC(=O)c1nc(NC(=O)c2nc(NC(=O)c3nc(NC(=O)c4ccc(C(=O)Nc5cn(C)c(C(=O)Nc6cn(C)c(C(=O)Nc7cn(C)c(C(=O)NCCCN(C)C)n7)n6)n5)cc4)cn3C)cn2C)cn1C | > 50.1 | > 50.1 µM | –
74 | Nc1ncnc(N)c1N=O | > 200 | 5.89 µM and 1.62 µM | –
75 | O=C(N=C1[Se]C(=Nc2ccccc2)C(=Nc2ccccc2)N1c1ccc(Cl)cc1)c1ccccc1 | > 100 | 89.1 µM | –
76 | OCC(O)COc1c(Cl)ccc(Cl)c1Cl (configuration not stated) | 87.1 | 275 µM | –
77 | O=C(c1ccccc1)N1C(=S)N(c2ccc([N+](=O)[O-])cc2)C(=Nc2ccccc2)C1=Nc1ccccc1 | > 200 | 1 µM | –
78 | CCOP(=O)(OCC)C1=NC=CC=CC1n1c(-c2ccccc2)nn(CC)c1=O (configuration not stated) | > 603 | 417 µM | –
79 | COC(=O)C(=O)CC(=O)CCn1ncc(Cl)c(Cl)c1=O | > 776 | 4.07 µM | –
80 | CCCCI(O)OS(=O)(=O)c1ccc(C)cc1 | – | – | inactive
81 | CN(C)CCCNC(=O)c1cc(NC(=O)c2cc(NC(=O)c3cc(NC(=O)c4ccccc4C(=O)O)cn3C)cn2C)cn1C | > 200 | > 200 µM | –
82 | CC1(C)OC(C[C@]2(C#N)C[C@H](CCl)OC(C)(C)O2)C[C@@H](C[C@]2(C#N)C[C@H](CCl)OC(C)(C)O2)O1 (some centres not stated) | > 200 | 67.6 µM | –
83 | CN1Cc2ccccc2/C=C\c2ccccc21 | > 200 | 132 µM | –
84 | O=C1CSC(Cc2nc3ccccc3o2)=N1 | > 200 | 4.79 µM | –
85 | Cc1ccc(S(=O)(=O)OC2C3C=CC2C2CSCC32)cc1 (configuration not stated) | > 100 | > 100 µM | –
86 | COc1ccc(-c2cc(-c3ccco3)c(C#N)c(=O)n2C2OC(COC(C)=O)C(OC(C)=O)C(OC(C)=O)C2OC(C)=O)cc1 (configuration not stated) | > 11.5 | > 11.5 µM | –
